Source: paper PMC11962866 (RSC Advances, 2025)
Values after ≈ are worked out from the molar mass of the structure shown. Like-named read-outs stand apart in the source and are kept apart here.

What was measured:
[1] = system: ERG11 and CDR1 of azole-resistant strain 904; experiment: RT-PCR expression of resistant genes ERG11 and CDR1; format: cell-based, Candida albicans; details: 0.25 μg mL^−1, strain 904, RT-PCR
C. alb (SC5314) = experiment: In vitro antifungal assay; format: cell-based; details: Candida albicans, SC5314, read-out: MIC80 C. alb (SC5314)
MRC-5 cells = experiment: Cytotoxicity assay on normal cells; format: cell-based, human; details: read-out: IC50 on MRC-5 cell lines
[2] = system: azole-resistant strain 904; experiment: In vivo antifungal potency, mouse infection model, kidney fungal burden; details: mice, tail vein infection with strain 904, intraperitoneal, day 5
[3] = Metabolic stability assay of liver microsomes; format: in vitro ADME; details: mouse
Strain 17# = experiment: Antifungal activity against fluconazole-resistant strain; format: cell-based; details: Candida albicans, read-out: MIC80 Strain 17#
Strain CaR = experiment: as above; format: cell-based; details: Candida albicans, read-out: MIC80 Strain CaR
Plasma stability assay = details: male, SD, rat
C. neo = experiment: In vitro antifungal assay; format: cell-based; details: Cryptococcus neoformans, read-out: MIC80 C. neo
[4] = system: azole-resistant strain 904; experiment: Yeast-to-hypha morphological transition; format: cell-based, Candida albicans; details: 0.25 μg mL^−1, 5 h
Strain 904 = experiment: Antifungal activity against fluconazole-resistant strain; format: cell-based, Candida albicans; details: for MIC80: Candida albicans, 904, read-out: MIC80 Strain 904
Strain 632 = experiment: as above; format: cell-based; details: Candida albicans, 632, read-out: MIC80 Strain 632
C. alb SC5314 [5] = experiment: GC-MS analysis of sterol composition; format: cell-based, Candida albicans; details: 0.03 μg mL^−1, 24 h
[6] = system: five fluconazole-resistant strains obtained from clinical isolation; experiment: Antifungal activity, span over five fluconazole-resistant strains; format: cell-based, Candida albicans
Strain 901 = experiment: Antifungal activity against fluconazole-resistant strain; format: cell-based; details: Candida albicans, 901, read-out: MIC80 Strain 901
C. alb SC5314 [7] = experiment: Morphological observation of fungal cells by TEM; format: cell-based, Candida albicans; details: 2 μg mL^−1, 24 h
[8] = system: strain 904, fluconazole-resistant strain of C. albicans; experiment: Minimum fungicidal concentration; format: cell-based, Candida albicans; details: Candida albicans, read-out: MFC against C. alb
[9] = system: C. alb (5314),C. par, C. gla, C. kru and C. neo; experiment: In vitro antifungal assay, span over the five tested species; format: cell-based; details: range over C. alb (5314)

Compound	MIC80 (C. alb (SC5314)) [µg/mL]	IC50 (MRC-5 cells; Homo sapiens, MRC5, 72 h) [µM]	MIC80 (Strain 17#) [µg/mL]	MIC80 (Strain CaR) [µg/mL]	MIC80 (C. neo) [µg/mL]	MIC80 (Strain 904) [µg/mL]	MIC80 (Strain 632) [µg/mL]	MIC80 (Strain 901) [µg/mL]	other results
OC(Cn1cncn1)(Cn1cncn1)c1ccc(F)cc1F [Fluconazole, fluconazole, reference compound]	4 (≈ 13.1 µM)	> 100	> 128	> 128	8 (≈ 26.1 µM)	> 128	> 128	> 128	Expression of ERG11 and CDR1 [1]: overexpression of drug resistance gene ERG11 and CDR1; Efficacy in vivo (CFU fungal burden in kidneys) [2]: ineffective; half-life [3]: > 2 h; microsomal CLint [3]: 2 µL/min/mg; half-life (Plasma stability assay): > 6 h; remaining at 3 h (Plasma stability assay): 102%; Morphological transition from yeast to hyphae [4]: did not inhibit the morphological transition; MIC (Strain 904; Candida albicans, 904, read-out: MIC against C. alb): > 128 µg/mL; Effect on ergosterol biosynthesis / sterol composition (C. alb SC5314 [5]): effectively suppresses ergosterol biosynthesis; Antifungal activity against the tested resistant strains (in words) [6]: completely inactive; Fungal cell morphology (TEM) (C. alb SC5314 [7]): the cell membrane was damaged; MFC [8]: > 128 µg/mL
O=C(Nc1ccc(Cl)cc1)c1ccc(COC(Cn2ccnc2)c2ccc(Cl)cc2Cl)cc1 (stereo not drawn) [A03, N-(4-Chlorophenyl)-4-((1-(2,4-dichlorophenyl)-2-(1H-imidazol-1-yl)ethoxy)methyl)benzamide]	0.125 (≈ 0.25 µM)	> 100	16 (≈ 31.9 µM)	8 (≈ 16 µM)	0.06 (≈ 0.12 µM)	0.25 (≈ 0.499 µM)	4 (≈ 7.99 µM)	2 (≈ 3.99 µM)	
O=C(Nc1ccc2[nH]ccc2c1)c1ccc(COC(Cn2ccnc2)c2ccc(Cl)cc2Cl)cc1 (stereo not drawn) [A15, 4-((1-(2,4-Dichlorophenyl)-2-(1H-imidazol-1-yl)ethoxy)methyl)-N-(1H-indol-5-yl)benzamide]	128 (≈ 253 µM)	> 100	> 128	128 (≈ 253 µM)	128 (≈ 253 µM)	8 (≈ 15.8 µM)	128 (≈ 253 µM)	8 (≈ 15.8 µM)	
O=C(Nc1cccc(Cl)c1)c1ccc(COC(Cn2ccnc2)c2ccc(Cl)cc2Cl)cc1 (stereo not drawn) [A09, N-(3-Chlorophenyl)-4-((1-(2,4-dichlorophenyl)-2-(1H-imidazol-1-yl)ethoxy)methyl)benzamide]	0.03 (≈ 0.0599 µM)	> 100	8 (≈ 16 µM)	8 (≈ 16 µM)	0.125 (≈ 0.25 µM)	0.25 (≈ 0.499 µM)	4 (≈ 7.99 µM)	2 (≈ 3.99 µM)	
O=C(Nc1ccc(Br)cc1)c1ccc(COC(Cn2ccnc2)c2ccc(Cl)cc2Cl)cc1 (stereo not drawn) [A04, N-(4-Bromophenyl)-4-((1-(2,4-dichlorophenyl)-2-(1H-imidazol-1-yl)ethoxy)methyl)benzamide]	0.06 (≈ 0.11 µM)	> 100	16 (≈ 29.3 µM)	4 (≈ 7.34 µM)	0.25 (≈ 0.458 µM)	0.25 (≈ 0.458 µM)	4 (≈ 7.34 µM)	2 (≈ 3.67 µM)	
N.N.[Cl][Pt][Cl] [cis-Pt, reference compound]									IC50 (MRC-5 cells; 72 hours): 78.3 µM
COc1ccc(NC(=O)c2ccc(COC(Cn3ccnc3)c3ccc(Cl)cc3Cl)cc2)cc1 (stereo not drawn) [A07, 4-((1-(2,4-Dichlorophenyl)-2-(1H-imidazol-1-yl)ethoxy)methyl)-N-(4-methoxyphenyl)benzamide]	0.06 (≈ 0.121 µM)	> 100	4 (≈ 8.06 µM)	4 (≈ 8.06 µM)	0.25 (≈ 0.504 µM)	0.25 (≈ 0.504 µM)	4 (≈ 8.06 µM)	4 (≈ 8.06 µM)	Expression of ERG11 and CDR1 [1]: reduced to basic levels
O=C(Nc1ccc(C(F)(F)F)cc1)c1ccc(COC(Cn2ccnc2)c2ccc(Cl)cc2Cl)cc1 (stereo not drawn) [A06, 4-((1-(2,4-Dichlorophenyl)-2-(1H-imidazol-1-yl)ethoxy)methyl)-N-(4-(trifluoromethyl)phenyl)benzamide]	0.06 (≈ 0.112 µM)	> 100	16 (≈ 29.9 µM)	2 (≈ 3.74 µM)	0.125 (≈ 0.234 µM)	0.25 (≈ 0.468 µM)	2 (≈ 3.74 µM)	2 (≈ 3.74 µM)	
O=C(Nc1ccc(F)cc1)c1ccc(COC(Cn2ccnc2)c2ccc(Cl)cc2Cl)cc1 (stereo not drawn) [A02, 4-((1-(2,4-Dichlorophenyl)-2-(1H-imidazol-1-yl)ethoxy)methyl)-N-(4-fluorophenyl)benzamide]	0.125 (≈ 0.258 µM)	> 100	8 (≈ 16.5 µM)	8 (≈ 16.5 µM)	0.5 (≈ 1.03 µM)	0.25 (≈ 0.516 µM)	4 (≈ 8.26 µM)	4 (≈ 8.26 µM)	
Clc1ccc(COC(Cn2ccnc2)c2ccc(Cl)cc2Cl)c(Cl)c1 (stereo not drawn) [Miconazole, miconazole]	0.25 (≈ 0.601 µM)				0.125 (≈ 0.3 µM)				half-life [3]: 0.138 h; microsomal CLint [3]: 660 µL/min/mg; half-life (Plasma stability assay): > 6 h; remaining at 3 h (Plasma stability assay): 94.9%
O=C(Nc1ccc2ccccc2c1)c1ccc(COC(Cn2ccnc2)c2ccc(Cl)cc2Cl)cc1 (stereo not drawn) [A14, 4-((1-(2,4-Dichlorophenyl)-2-(1H-imidazol-1-yl)ethoxy)methyl)-N-(naphthalen-2-yl)benzamide]	32 (≈ 62 µM)	> 100	64 (≈ 124 µM)	8 (≈ 15.5 µM)	32 (≈ 62 µM)	16 (≈ 31 µM)	16 (≈ 31 µM)	16 (≈ 31 µM)	MIC80 / MIC span over the five tested fungi [9]: 2 to 64 µg/mL
O=C(Nc1ccccc1)c1ccc(COC(Cn2ccnc2)c2ccc(Cl)cc2Cl)cc1 (stereo not drawn) [A01, 4-((1-(2,4-dichlorophenyl)-2-(1H-imidazol-1-yl)ethoxy)methyl)-N-phenylbenzamide]	0.125 (≈ 0.268 µM)	> 100	8 (≈ 17.2 µM)	4 (≈ 8.58 µM)	0.25 (≈ 0.536 µM)	0.5 (≈ 1.07 µM)	4 (≈ 8.58 µM)	2 (≈ 4.29 µM)	Expression of ERG11 and CDR1 [1]: reduced to basic levels
O=C(Nc1cccc(F)c1)c1ccc(COC(Cn2ccnc2)c2ccc(Cl)cc2Cl)cc1 (stereo not drawn) [A08, 4-((1-(2,4-Dichlorophenyl)-2-(1H-imidazol-1-yl)ethoxy)methyl)-N-(3-fluorophenyl)benzamide]	0.06 (≈ 0.124 µM)	> 100	16 (≈ 33 µM)	4 (≈ 8.26 µM)	0.125 (≈ 0.258 µM)	0.25 (≈ 0.516 µM)	4 (≈ 8.26 µM)	2 (≈ 4.13 µM)	
O=C(Nc1cccc2ccccc12)c1ccc(COC(Cn2ccnc2)c2ccc(Cl)cc2Cl)cc1 (stereo not drawn) [A13, 4-((1-(2,4-Dichlorophenyl)-2-(1H-imidazol-1-yl)ethoxy)methyl)-N-(naphthalen-1-yl)benzamide]	8 (≈ 15.5 µM)	> 100	64 (≈ 124 µM)	128 (≈ 248 µM)	64 (≈ 124 µM)	1 (≈ 1.94 µM)	8 (≈ 15.5 µM)	1 (≈ 1.94 µM)	MIC80 / MIC span over the five tested fungi [9]: 2 to 64 µg/mL
Cc1ccc(NC(=O)c2ccc(COC(Cn3ccnc3)c3ccc(Cl)cc3Cl)cc2)cc1 (stereo not drawn) [A05, 4-((1-(2,4-Dichlorophenyl)-2-(1H-imidazol-1-yl)ethoxy)methyl)-N-(p-tolyl)benzamide]	0.03 (≈ 0.0624 µM)	> 100	8 (≈ 16.7 µM)	4 (≈ 8.33 µM)	0.25 (≈ 0.52 µM)	0.25 (≈ 0.52 µM)	4 (≈ 8.33 µM)	4 (≈ 8.33 µM)	
O=C(Nc1cccc(Br)c1)c1ccc(COC(Cn2ccnc2)c2ccc(Cl)cc2Cl)cc1 (stereo not drawn) [A10, N-(3-Bromophenyl)-4-((1-(2,4-dichlorophenyl)-2-(1H-imidazol-1-yl)ethoxy)methyl)benzamide]	0.25 (≈ 0.458 µM)	> 100	16 (≈ 29.3 µM)	8 (≈ 14.7 µM)	0.125 (≈ 0.229 µM)	0.25 (≈ 0.458 µM)	8 (≈ 14.7 µM)	2 (≈ 3.67 µM)	
O=C(Nc1ccc2cccnc2c1)c1ccc(COC(Cn2ccnc2)c2ccc(Cl)cc2Cl)cc1 (stereo not drawn) [A12, 4-((1-(2,4-Dichlorophenyl)-2-(1H-imidazol-1-yl)ethoxy)methyl)-N-(quinolin-7-yl)benzamide]	8 (≈ 15.5 µM)	> 100	8 (≈ 15.5 µM)	4 (≈ 7.73 µM)	4 (≈ 7.73 µM)	2 (≈ 3.87 µM)	8 (≈ 15.5 µM)	8 (≈ 15.5 µM)	MIC80 / MIC span over the five tested fungi [9]: 2 to 64 µg/mL
